Experimental data reported in patent publication US5330983A, “14-O-p-chlorobenzoylaconine and analgesic/anti-inflammatory agent containing the same” (priority 1991, dated 1994).
Structures can show the parent of a compound that is named as a salt.

Key:
[1] = system: Male mice of the Std:ddY Strain; assay: Analgesic activity by the tail-pressure method; type: in vivo
Procedure: Measurement of Analgesic Activity by the Tail-Pressure Method
Male mice of the Std:ddY Strain (20-25 g), which were fasted for one night before the initiation of the experiment, were used. Test compound hardly soluble in water was used in 3% suspension in gum arabic. Test compound taking a salt form was used in aqueous solution. Experiments were made with a tail-pressure apparatus. Before the administration of test compounds, the pain threshold was measured twice at intervals of 30 minutes and those mice indicating a pain threshold of 30 to 80 mmHg were selected and used. The pain threshold of each mouse was measured at 1, 3 and 5 hours after test compounds were administered p.o. The results were described as a percentage of the pain threshold after the treatment with test compound relative to that before the treatment with test compound.

[2] = system: Male mice of the Std:ddY Strain; assay: Analgesic activity by the acetic acid-induced writhing method; type: in vivo; conditions: acetic acid i.p., counted for 10 min, n = 10
Procedure: Measurement of Analgesic Activity by the Acetic Acid-Induced Writhing Method
Male mice of the Std:ddY Strain (20-25 g), which were fasted for one night before the initiation of the experiment, were used. Test compound hardly soluble in water was used in 3% suspension in gum arabic. Test compound taking a salt form was used in aqueous solution. 0.7% acetic acid in 0.9% physiological saline solution was injected i.p. (10 ml/kg) at 2 hours and 50 minutes after the test compound was administered p.o. After 10 minutes, the number of writhing movements was counted for a period of 10 minutes.

[3] = system: Male mice of the Std:ddY Strain; assay: Analgesic activity by the hot plate method; type: in vivo; conditions: 52° C. plate
Procedure: Measurement of Analgesic Activity by the Hot Plate Method
Male mice of the Std:ddY Strain (20-25 g), which were fasted for one night before the initiation of the experiment, were used. Test compound hardly soluble in water was used in 3% suspension in gum arabic. Test compound taking a salt form was used in aqueous solution. Mice were placed on a cyrindric hot plate (diameter: 22 cm, height: 11 cm) made of copper which was fixed in a water bath adjusted to 52° C. so that each animal's four paws came into contact with the plate and the time taken to show the nociceptive response (jumping and licking) as an index of pain was measured. Mice showing response times above 25 seconds were excluded from the experiment. The analgesic activity of the compound was measured at 1, 3 and 5 hours after test compound was administered p.o. The results are shown in Table 4.

in vivo = assay: in vivo; set-up: species or system mice (Std:ddY); conditions: mouse, in vivo, po; mortality during 72 hours; Litchfield-Wilcoxon
Excerpt: (§1) EXPERIMENT EXAMPLE 6 (ACUTE TOXICITY)
(§2) Male mice of the Std:ddY Strain (20-25 g), which were fasted for one night before the initiation of the experiment, were used. Test compound hardly soluble in water was used in 3% suspension in gum arabic. Test compound taking a salt form was used in aqueous solution.

[4] = system: Male rats of the Wistar strain; assay: Antiinflammatory activity by the carrageenin-induced hind paw edema; type: in vivo; conditions: 100 mg/kg p.o.
Procedure: Measurement of Antiinflammatory Activity by the Carrageenin-Induced Hind Paw Edema
Male rats of the Wistar strain (5 weeks old, 120-130 g), which were fasted for one night before the initiation of the experiment, were used. One hour after the oral administration of test compound, λ-carrageenin (1%) was injected s.c. under the plantar surface of the right hind paw. Thereafter, at one hour intervals for 6 hours, the volume of the paw was measured using an apparatus therefor. The results were described as a swelling rate (%) calculated using the following equation:
(R-L)×100/L=swelling rate (%)
R: the volume of the right hind paw
L: the volume of the left hind paw

[5] = system: Male mice of the Std:ddY Strain; assay: Analgesic activity by the phenylquinone-induced writhing method; type: in vivo; conditions: phenylquinone i.p., counted for 15 min, n = 8~10
Procedure: Measurement of Analgesic Activity by the Phenylquinone-Induced Writhing Method
Male mice of the Std:ddY Strain (20-25 g), which were fasted for one night before the initiation of the experiment, were used. Test compound hardly soluble in water was used in 3% suspension in gum arabic. Test compound taking a salt form was used in aqueous solution. 0.03% phenylquinone in 0.5% ethanol solution was injected i.p. (10 ml/kg) at 2 hours and 55 minutes after the compound was administered p.o. After 5 minutes, the number of writhings was counted for a period of 15 minutes.

[6] = system: Male mice of the Std:ddY Strain; assay: in vivo; conditions: p.o., mortality during 72 hours, Litchfield-Wilcoxon, 4320 min
Excerpt: as §1, §2

Property and solubility = type: physicochemical

Row | SMILES | Pain threshold (%, mean ± S.E.), posttreatment relative to pretreatment ([1]; 100 mg/kg p.o., 1 h) | Pain threshold (%, mean ± S.E.), posttreatment relative to pretreatment ([1]; 100 mg/kg p.o., 3 h) | Pain threshold (%, mean ± S.E.), posttreatment relative to pretreatment ([1]; 100 mg/kg p.o., 5 h) | Pain threshold (%, mean ± S.E.), posttreatment relative to pretreatment ([1]; 300 mg/kg p.o., 1 h) | Pain threshold (%, mean ± S.E.), posttreatment relative to pretreatment ([1]; 300 mg/kg p.o., 3 h) | Pain threshold (%, mean ± S.E.), posttreatment relative to pretreatment ([1]; 300 mg/kg p.o., 5 h) | The number of writhings, mean ± S.E. ([2]; 3 mg/kg p.o.) | The number of writhings, mean ± S.E. ([2]; 10 mg/kg p.o.) | The number of writhings, mean ± S.E. ([2]; 30 mg/kg p.o.) | Pain threshold (s, mean ± S.E.) ([3]; 100 mg/kg p.o., 1 h) | Pain threshold (s, mean ± S.E.) ([3]; 100 mg/kg p.o., 3 h) | Pain threshold (s, mean ± S.E.) ([3]; 100 mg/kg p.o., 5 h) | Pain threshold (s, mean ± S.E.) ([3]; 300 mg/kg p.o., 1 h) | Pain threshold (s, mean ± S.E.) ([3]; 300 mg/kg p.o., 3 h) | Pain threshold (s, mean ± S.E.) ([3]; 300 mg/kg p.o., 5 h) | Swelling rate (%, mean ± S.E.) ([4]; 1 h after carrageenin) | Swelling rate (%, mean ± S.E.) ([4]; 2 h after carrageenin) | Swelling rate (%, mean ± S.E.) ([4]; 3 h after carrageenin) | Swelling rate (%, mean ± S.E.) ([4]; 4 h after carrageenin) | Swelling rate (%, mean ± S.E.) ([4]; 5 h after carrageenin) | further results
1 | CCN1CC2(COC)C(O)CC(OC)C34C5CC6(O)C(OC)C(O)C(C5C6OC(=O)c5ccccc5)C(C(OC)C23)C14 (stereo not drawn) [8-deoxy-14-O-benzoylaconine, reference compound] | 101.8 ± 14.1% | 100.2 ± 7.2% | 105.6 ± 9.2% | 115.6 ± 17.0% | 116.2 ± 12.0% | 110.2 ± 7.0% | 24.1 ± 2.7 | 21.9 ± 2.6 | 17.8 ± 2.5 | 17.3 ± 1.7 s | 17.9 ± 2.1 s | 18.9 ± 1.7 s | 18.6 ± 1.6 s | 24.0 ± 2.3 s | 19.6 ± 2.0 s | 24.8 ± 9.2% | 36.3 ± 6.3% | 59.8 ± 6.3% | 63.5 ± 1.0% | 70.3 ± 3.9% | LD50 at 72 h (in vivo): > 100 mg/kg; Swelling rate (%, mean ± S.E.) ([4]; 6 h after carrageenin): 72.2 ± 6.0%; The number of writhings, mean ± S.E. ([5]; 3 mg/kg p.o.): 27.1 ± 2.7; The number of writhings, mean ± S.E. ([5]; 10 mg/kg p.o.): 25.0 ± 3.0; The number of writhings, mean ± S.E. ([5]; 30 mg/kg p.o.): 24.0 ± 2.3
2 | CCN1C[C@]2(COC)[C@H](O)C[C@H](OC)[C@]34C1[C@H]([C@H](OC)[C@H]23)[C@]1(O)[C@H]2[C@@H](OC(=O)c3ccc(Cl)cc3)[C@](O)(C[C@H]24)[C@@H](OC)[C@@H]1O [14-O-p-chlorobenzoylaconine tartrate] | 102.6 ± 3.4% | 141.1 ± 8.3% | 128.0 ± 4.9% | 147.0 ± 7.8% | 240.4 ± 25.0% | 202.9 ± 19.7% | 17.8 ± 2.5 | 15.5 ± 2.3 | 10.7 ± 2.1 | 17.3 ± 2.2 s | 26.7 ± 3.2 s | 24.7 ± 2.1 s | 18.7 ± 1.7 s | 42.5 ± 11.0 s | 25.7 ± 2.7 s | 16.0 ± 3.6% | 31.5 ± 3.1% | 47.3 ± 7.4% | 56.1 ± 2.0% | 49.6 ± 5.0% | LD50 [6]: > 1000 mg/kg; Swelling rate (%, mean ± S.E.) ([4]; 6 h after carrageenin): 57.6 ± 9.0%; The number of writhings, mean ± S.E. ([5]; 3 mg/kg p.o.): 21.1 ± 2.4; The number of writhings, mean ± S.E. ([5]; 10 mg/kg p.o.): 18.3 ± 2.2; The number of writhings, mean ± S.E. ([5]; 30 mg/kg p.o.): 15.7 ± 2.7
3 | CCN1C[C@]2(COC)[C@H](O)C[C@H](OC)[C@]34C1[C@H]([C@H](OC)[C@H]23)[C@]1(O)[C@H]2[C@@H](OC(=O)c3ccc(Cl)cc3)[C@](O)(C[C@H]24)[C@@H](OC)[C@@H]1O [14-O-p-chlorobenzoylaconine] | 100.4 ± 2.5% | 129.6 ± 10.3% | 108.0 ± 6.0% | 120.0 ± 7.3% | 182.0 ± 21.7% | 166.0 ± 20.1% | 19.8 ± 2.5 | 17.3 ± 2.4 | 12.9 ± 3.7 | 21.6 ± 2.2 s | 21.6 ± 2.0 s | 27.6 ± 0.9 s | 22.2 ± 1.5 s | 38.4 ± 3.3 s | 24.0 ± 1.6 s | 22.4 ± 8.0% | 28.0 ± 2.4% | 51.0 ± 2.8% | 58.6 ± 2.4% | 66.8 ± 3.7% | LD50 at 72 h (in vivo): > 1000 mg/kg; LD50 ([6]; listed as compound of the formula (I)): ≥ 1,000 mg/kg; Swelling rate (%, mean ± S.E.) ([4]; 6 h after carrageenin): 72.9 ± 5.3%; Solubility in organic solvents (Property and solubility; ether, chloroform, benzene, methanol, ethanol, acetone, ethyl acetate, pyridine and dimethyl sulfoxide): Soluble; Solubility in hexane and water (Property and solubility; hexane and water): Insoluble; The number of writhings, mean ± S.E. ([5]; 3 mg/kg p.o.): 20.1 ± 3.6; The number of writhings, mean ± S.E. ([5]; 10 mg/kg p.o.): 17.3 ± 2.8; The number of writhings, mean ± S.E. ([5]; 30 mg/kg p.o.): 15.9 ± 3.5
